Where two headings read alike, the source gives them in different places. Peptide text beside a SMILES is read from it. * marks the point of attachment. Cbz = O=C(OCc1ccccc1)*
What was measured:
[1] = biological target: T1, β5 active site of the human 20S proteasome (Homo sapiens, UniProt P28074); test: Proteasome kinetic assay (β5 chymotrypsin-like active site); assay type: biochemical; details: substrate Suc-LLVY-AMC 100 µM
T1 construct: purchased Boston Biochem
Procedure: Human 20S proteasome, 700 KDa, was purchased from Boston Biochem (50 µg, 2 µM (1.4 mg/mL)) in 50 mM HEPES buffer (pH 7.6, 100 mM NaCl, 1 mM DTT). Assay buffer was prepared as follows: 20 mM HEPES buffer pH 7.8, 0.5 mM EDTA, 0.037% SDS. Proteasome specific substrate Suc-LLVY-AMC was purchased from Boston Biochem and used as a fluorogenic substrate; λex = 380 nm, λem = 442 nm. 18 µL of 2 µM proteasome solution was diluted with 425 µL H2O to make a 0.06 µM stock enzyme solution for kinetic assays. In a 96-well plate suitable for fluorometric assays was added 86 µL assay buffer, 2 µL inhibitor, 2 µL enzyme substrate, and 10 µL enzyme stock solution ([…] enzyme concentration in well). Fluorescence at 442 nM was monitored for 10 min. […] IC50 values were obtained from non-linear fitting of the data to a competitive inhibition model using GraphPad Prism 7.0 software. The proteasome β5 chymotrypsin-like active site activity assay was performed as previously described.

S. mansoni legumain = S. mansoni legumain (Schistosoma mansoni, UniProt P09841); test: Legumain kinetic assay (S. mansoni); assay type: biochemical; details: for IC50: substrate Cbz-AAN-AMC 50 µM, pH 5.5
Sequence of S. mansoni legumain (P09841 32-291): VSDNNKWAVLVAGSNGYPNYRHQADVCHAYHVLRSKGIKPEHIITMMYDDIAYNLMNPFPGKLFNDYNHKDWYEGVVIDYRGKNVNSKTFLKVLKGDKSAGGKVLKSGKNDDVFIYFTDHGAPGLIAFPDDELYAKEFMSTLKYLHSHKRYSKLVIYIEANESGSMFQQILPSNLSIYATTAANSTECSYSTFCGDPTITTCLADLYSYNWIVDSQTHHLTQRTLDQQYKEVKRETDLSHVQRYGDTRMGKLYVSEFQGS
Procedure: (§1) Schistosoma mansoni and Ixodes ricinus legumain zymogens were expressed in the yeast, Pichia pastoris, as described[36]^,[42]. Legumain kinetic assay details: zymogens were activated for 3 h (Ir) or overnight (Sm) at room temperature in 0.1 M Na-Ac pH 4.0; 5 mM DTT. Activities were measured in 0.1 M Na-Ac pH 5.5; 2.5 mM DTT, 0.1% PEG 6000 buffer. The substrate used was Cbz-AAN-AMC with 50 µM final concentration in the assay. Inhibitors were prepared in DMSO (1% DMSO in activity assay). Measurements were taken with an incubation period of 10 min at room temperature, and the enzyme activity was measured in triplicate. Asparaginyl Endopeptidase (AE) activity assay was performed as previously described.

I. ricinus legumain = I. ricinus legumain (Ixodes ricinus, UniProt Q6PRC7); test: Legumain kinetic assay (I. ricinus); assay type: biochemical
Sequence of I. ricinus legumain (Q6PRC7 37-328 limits assumed): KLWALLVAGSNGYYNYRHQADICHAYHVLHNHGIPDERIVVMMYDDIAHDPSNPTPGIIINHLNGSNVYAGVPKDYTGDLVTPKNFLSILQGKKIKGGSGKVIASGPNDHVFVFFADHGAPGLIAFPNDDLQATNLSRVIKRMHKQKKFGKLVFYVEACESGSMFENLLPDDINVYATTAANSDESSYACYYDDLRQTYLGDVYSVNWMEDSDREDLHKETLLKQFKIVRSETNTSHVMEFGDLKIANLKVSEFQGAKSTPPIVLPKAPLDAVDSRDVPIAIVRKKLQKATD
Procedure: as §1

[2] = cited from earlier work
proteasome = details: substrate Suc-LLVY-AMC, cited from earlier work; for Ki: read-out: previously reported Ki
human caspase-3 = biological target: T2, human caspase-3 (Homo sapiens, UniProt P42574); test: Caspase-3 kinetic assay; assay type: biochemical; details: substrate Ac-DEVD-AMC 0.1 mM, 37 °C
T2 construct: gift, Prof; Guy Salvesen's laboratory
T2 sequence (P42574 29-175 limits assumed): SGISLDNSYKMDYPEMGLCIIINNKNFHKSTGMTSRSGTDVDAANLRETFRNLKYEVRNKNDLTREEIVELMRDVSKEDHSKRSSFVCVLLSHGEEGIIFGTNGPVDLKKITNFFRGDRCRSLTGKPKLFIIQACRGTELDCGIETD
T2 sequence (P42574 176-277 limits assumed): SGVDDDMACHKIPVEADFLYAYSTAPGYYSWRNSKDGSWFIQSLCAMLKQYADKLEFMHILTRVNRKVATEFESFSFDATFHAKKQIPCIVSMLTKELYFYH
Procedure: (§2) Caspase-3 and caspase-6 were generous gifts from Prof. Guy Salvesen’s laboratory and then used at Ohio State University. Caspase activities were measured in 100 mM HEPES, 10% sucrose, 0.1% CHAPS, 10 mM DTT, pH 7.5 at 37 °C. To 5,000 µL of this buffer, 100 µL of freshly prepared 1 M DTT and 4,900 µL DI H2O were added resulting in the caspase assay buffer. Studies were performed at 37 °C.
Caspase-3 specific substrate Ac-DEVD-AMC was purchased from Cayman Chemical Company and used as fluorogenic substrate; λex = 353 nm, λem = 442 nm. 2 µL of 33 µM caspase-3 solution was diluted with 4998 µL caspase assay buffer to make a 13.2 nM enzyme stock solution. In a 96-well plate suitable for fluorometric assays, 80 µL assay buffer, 5 µL inhibitor, 5 µL enzyme substrate (0.1 mM), and 10 µL enzyme stock solution were added. Fluorescence at 442 nM was monitored for 10 min. The enzyme activity was measured in triplicate at varying concentrations of inhibitor (0, 25, 50, 100 µM in DMSO) and substrate (0.1 mM in DMSO) by converting the slope of the plot of fluorescence intensity at 442 nm vs time for the time points between 4 and 8 min using Beer-Lambert’s law. IC50 values were obtained from non-linear fitting of the data to a competitive inhibition model using GraphPad Prism 7.0 software.

human caspase-6 = biological target: T3, human caspase-6 (Homo sapiens, UniProt P55212); test: Caspase-6 kinetic assay; assay type: biochemical; details: for IC50: substrate Ac-VEID-AFC 0.1 mM, 37 °C
T3 construct: gift, Prof; Guy Salvesen's laboratory
T3 sequence (P55212 24-179 limits assumed): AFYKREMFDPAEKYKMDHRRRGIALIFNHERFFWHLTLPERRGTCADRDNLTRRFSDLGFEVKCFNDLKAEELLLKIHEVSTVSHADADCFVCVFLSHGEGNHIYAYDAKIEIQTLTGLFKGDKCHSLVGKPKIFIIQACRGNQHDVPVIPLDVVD
T3 sequence (P55212 194-293 limits assumed): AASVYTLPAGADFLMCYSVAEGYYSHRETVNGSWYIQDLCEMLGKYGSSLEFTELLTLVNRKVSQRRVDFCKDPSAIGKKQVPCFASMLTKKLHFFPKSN
Procedure: as §2
Caspase-6 specific substrate Ac-VEID-AFC was purchased from ChemCruz and used as a fluorogenic substrate; λex = 400 nm, λem = 505 nm. To 45 µL of assay buffer, 5 µL of the 19.7 µM enzyme was added. This resulting enzyme solution was further diluted 1:5 with assay buffer resulting in a 0.32 µM solution. In a 96-well plate suitable for fluorometric assays was added 80 µL assay buffer, 5 µL inhibitor, 5 µL enzyme substrate (0.1 mM), and 10 µL enzyme stock solution (32 nM enzyme concentration in well). The enzyme activity was measured in triplicate at varying concentrations of inhibitor (0, 25, 50, 100 µM in DMSO) and substrate (0.1 mM in DMSO) by converting the slope of the plot of fluorescence intensity at 442 nm vs time for the time points between 4 and 8 min using Lambert-Beer’s law. IC50 values were obtained from non-linear fitting of the data to a competitive inhibition model using GraphPad Prism 7.0 software.

[3] = biological target: calpains and various lysosomal cathepsins; parameters: method as in PMID 8087844; details: cited from earlier work
[4] = at the highest concentration tested (100 µM)

SMILES: CC(=O)C(=O)N(CC(C)C)NC(=O)[C@H](CC(C)C)NC(=O)[C@H](CC(C)C)NC(=O)OCc1ccccc1 [Compound 4, Benzyl ((S)-1-(((S)-1–(2-isobutyl-2–(2-oxopropanoyl)hydrazinyl)-4-methyl-1-oxopentan-2-yl)amino)-4-methyl-1-oxopentan-2-yl)carbamate]
- IC50 [1]: 14.6 ± 2.39 µM

SMILES: CC(=O)C(=O)N(CC(N)=O)NC(=O)[C@H](C)NC(=O)[C@H](C)NC(=O)OCc1ccccc1 [Compound 10, Benzyl ((S)-1-(((S)-1–(2–(2-amino-2-oxoethyl)-2-(2-oxopropanoyl)hydrazinyl)-1-oxopropan-2-yl)amino)-1-oxopropan-2-yl)carbamate]
- inhibition of S. mansoni legumain (S. mansoni legumain; [4]): did not show inhibition
- IC50 (S. mansoni legumain): > 100 µM
- inhibition of I. ricinus legumain (I. ricinus legumain; [4]): did not show inhibition
- IC50 (I. ricinus legumain; substrate Cbz-AAN-AMC 50 µM, pH 5.5, read-out: IC50 I. ricinus): > 100 µM

SMILES: CC(C)C[C@H](NC(=O)[C@H](Cc1ccccc1)NC(=O)c1cnccn1)B(O)O [bortezomib]
- peripheral neuropathy, share of patients ([2]; newly diagnosed multiple myeloma patients): up to 64%

SMILES: CCC[C@@H](C=O)NC(=O)[C@H](CC(C)C)NC(=O)[C@H](CC(C)C)NC(=O)OCc1ccccc1 [MG115, Cbz-Leu-Leu-Nle-CHO]
- Ki (proteasome): 21 nM

SMILES: CC(C)C[C@H](NC(=O)[C@H](CCc1ccccc1)NC(=O)CN1CCOCC1)C(=O)N[C@@H](Cc1ccccc1)C(=O)N[C@@H](CC(C)C)C(=O)[C@@]1(C)CO1 [Carfilzomib, carfilzomib]
- adverse cardiovascular effects, share of patients ([2]; treated patients): up to 30%

SMILES: CC(C)C[C@H](NC(=O)OCc1ccccc1)C(=O)N[C@@H](CC(C)C)C(=O)NN(CC(C)C)C(=O)C=O [Compound 3, Benzyl ((S)-1-(((S)-1–(2-isobutyl-2–(2-oxoacetyl)hydrazinyl)-4-methyl-1-oxopentan-2-yl)amino)-4-methyl-1-oxopentan-2-yl)carbamate]
- IC50 [1]: 9.02 ± 1.82 µM

SMILES: CC[C@@H](C)[C@H](NC(=O)OCc1ccccc1)C(=O)N[C@@H](CCC(=O)O)C(=O)N[C@H](C(=O)NN(CC(=O)O)C(=O)C(C)=O)[C@H](C)O [Compound 8, (5S,8S,11S)-5-((R)-s-butyl)-8–(2-carboxyethyl)-11-((S)-1-hydroxyethyl)-3,6,9,12-tetraoxo-14–(2-oxopropanoyl)-1-phenyl-2-oxa-4,7,10,13,14-pentaazahexadecan-16-oic acid]
- IC50 (human caspase-3): 122 ± 83.3 µM
- inhibits caspase-6 more effectively than caspase-3 (human caspase-6; ratio of IC50 caspase-3 / caspase-6): 13 times
- IC50 (human caspase-6): 9.08 ± 3.02 µM

SMILES: CC(C)C[C@H](NC(=O)OCc1ccccc1)C(=O)N[C@@H](CC(C)C)C(=O)NN(CC(C)C)C(=O)C(=O)Cc1ccccc1 [Compound 5, Benzyl ((S)-1-(((S)-1–(2-isobutyl-2–(2-oxo-3-phenylpropanoyl)hydrazinyl)-4-methyl-1-oxopentan-2-yl)amino)-4-methyl-1-oxopentan-2-yl)carbamate]
- IC50 [1]: 10.1 ± 4.49 µM

SMILES: CC(C)[C@H](NC(=O)[C@H](CCC(=O)O)NC(=O)[C@H](CC(=O)O)NC(=O)OCc1ccccc1)C(=O)NN(CC(=O)O)C(=O)C(=O)Cc1ccccc1 [Compound 7, (5S,8S,11S)-8–(2-Carboxyethyl)-5-(carboxymethyl)-11-isopropyl-3,6,9,12-tetraoxo-14–(2-oxo-3-phenylpropanoyl)-1-phenyl-2-oxa-4,7,10,13,14-pentaazahexadecan-16-oic acid]
- IC50 (human caspase-3): 13.4 ± 4.61 µM
- IC50 (human caspase-6): 64.2 ± 45.4 µM

SMILES: CC(C)C[C@@H](C=O)NC(=O)[C@H](CC(C)C)NC(=O)[C@H](CC(C)C)NC(=O)OCc1ccccc1 [MG132, Cbz-Leu-Leu-Leu-CHO] (Cbz-Leu-Leu-Leu-aldehyde)
- previously reported Ki (proteasome): few nanomolar
- Ki (proteasome): 2 to 4 nM
- Ki [3]: 5 to 12 nM

SMILES: CC(=O)C(=O)N(CC(=O)O)NC(=O)[C@@H](NC(=O)[C@H](CCC(=O)O)NC(=O)[C@H](CC(=O)O)NC(=O)OCc1ccccc1)C(C)C [Compound 6, (5S,8S,11S)-8–(2-Carboxyethyl)-5-(carboxymethyl)-11-isopropyl-3,6,9,12-tetraoxo-14–(2-oxopropanoyl)-1-phenyl-2-oxa-4,7,10,13,14-pentaazahexadecan-16-oic acid]
- IC50 (human caspase-3): 7.74 ± 1.88 µM
- IC50 (human caspase-6): 51.9 ± 10.6 µM

SMILES: C[C@H](NC(=O)OCc1ccccc1)C(=O)N[C@@H](C)C(=O)NN(CC(N)=O)C(=O)C(=O)Cc1ccccc1 [Compound 11, Benzyl ((S)-1-(((S)-1–(2–(2-amino-2-oxoethyl)-2-(2-oxo-3-phenylpropanoyl)hydrazinyl)-1-oxopropan-2-yl)amino)-1-oxopropan-2-yl)carbamate]
- IC50 (S. mansoni legumain): 22.2 ± 4.21 µM
- IC50 (I. ricinus legumain): 17.8 ± 11.2 µM

Reference: article PMC7470110, “Design, synthesis, and in vitro evaluation of aza-peptide aldehydes and ketones as novel and selective protease inhibitors” (Journal of Enzyme Inhibition and Medicinal Chemistry, 2020)
